# System: HCoV 229E
# Experiment: HCoV 229E cytopathic effect (CPE) assay
# Format: cell-based, Human Coronavirus (HCov) 229E
# Conditions: CellTiter Glo
# Protocol: The antiviral activity of compounds was calculated based on the protection of the virus-induced CPE at each concentration normalized by the virus control.
# Reagents and instruments used in this assay include luminescent cell viability assay kit CellTiter Glo (Promega) and Microplate Reader Synergy2 (BioTek).
# Cytopathic effect (CPE) was measured by CellTiter Glo following the manufacturer's manual. The antiviral activity of compounds was calculated based on the protection of the virus-induced CPE at each concentration normalized by the virus control.
row,SMILES,EC50
1,"COc1cccc2[nH]c(C(=O)N[C@@H](CC(C)C)C(=O)N[C@@H](C[C@@H]3CCNC3=O)C(O)C#N)cc12 (single isomer, unassigned) [134 (Isomer 1)]",< 2000 nM
2,"COc1cccc2[nH]c(C(=O)N[C@@H](CC(C)C)C(=O)N[C@@H](C[C@@H]3CCNC3=O)C(C#N)NC(C)(C)C)cc12 (single isomer, unassigned) [323 (Isomer 1)]",< 2000 nM
3,"COc1cccc2[nH]c(C(=O)N[C@@H](CC(C)C)C(=O)N[C@@H](C[C@@H]3CCNC3=O)C(C#N)N3CCCC3)cc12 (single isomer, unassigned) [331 (Isomer 1)]",< 2000 nM
4,"COc1cccc2[nH]c(C(=O)N3C[C@H](c4ccccc4)C[C@H]3C(=O)N[C@@H](C[C@@H]3CCNC3=O)C(O)C#N)cc12 (single isomer, unassigned) [345 (Isomer 2)]",< 2000 nM
5,"COc1cccc2[nH]c(C(=O)N3CC(C45CC(C4)C5)C[C@H]3C(=O)N[C@H](C#N)C[C@@H]3CCNC3=O)cc12 (single isomer, unassigned) [385 (Isomer 1)]",< 2000 nM
6,"COc1cccc2[nH]c(C(=O)N3CC4(CCCCC4)CC3C(=O)N[C@H](C#N)C[C@@H]3CCNC3=O)cc12 (single isomer, unassigned) [389A (Isomer 1)]",< 2000 nM
7,"COc1cccc2[nH]c(C(=O)N[C@@H](CC(C)C)C(=O)N[C@@H](C[C@@H]3CCNC3=O)C(C#N)NCc3ccccc3)cc12 (single isomer, unassigned) [507 (Isomer 1.1)]",< 2000 nM
8,"COc1cccc2[nH]c(C(=O)N3CC4(CCCCC4)CC3C(=O)N[C@H](C#N)C[C@@H]3CCCNC3=O)cc12 (single isomer, unassigned) [681 (Isomer 1)]",< 2000 nM
9,"COc1cccc2[nH]c(C(=O)N[C@@H](CC(C)C)C(=O)N[C@@H](C[C@@H]3CCNC3=O)C(O)C#N)cc12 (single isomer, unassigned; isomer 2) [135 (Isomer 2)]",< 2000 nM
10,"COc1cccc2[nH]c(C(=O)N[C@@H](CC(C)C)C(=O)N[C@H](C#N)C[C@@H]3CCNC3=O)cc12 [Compound 101, N-[(1S)-1-[[(1S)-1-cyano-2-[(3S)-2-oxopyrrolidin-3-yl]ethyl]carbamoyl]-3-methyl-butyl]-4-methoxy-1H-indole-2-carboxamide]",< 2000 nM
11,"CC(C)C[C@H](NC(=O)c1nc2ccccc2[nH]1)C(=O)N[C@H](C#N)C[C@@H]1CCNC1=O [Compound 103, N-[(1S)-1-[[(1S)-1-cyano-2-[(3S)-2-oxopyrrolidin-3-yl]ethyl]carbamoyl]-3-methyl-butyl]-1H-benzimidazole-2-carboxamide]",< 2000 nM
12,CC(C)C[C@H](NC(=O)c1nc2cccc(Cl)c2[nH]1)C(=O)N[C@H](C#N)C[C@@H]1CCNC1=O [Compound 133],< 2000 nM
13,"COc1cccc2[nH]c(C(=O)NC(CC(C)C)C(=O)NC(CC3CCNC3=O)C(O)C#N)cc12 [Compound 134, N-[(1S)-1-[[(1S)-2-cyano-2-hydroxy-1-[[(3S)-2-oxopyrrolidin-3-yl]methyl]ethyl]carbamoyl]-3-methyl-butyl]-4-methoxy-1H-indole-2-carboxamide]",< 2000 nM
14,COc1cccc2[nH]c(C(=O)N3C[C@H](c4ccccc4)C[C@H]3C(=O)N[C@H](C#N)C[C@@H]3CCNC3=O)cc12 [Compound 171],< 2000 nM
15,"COc1cccc2[nH]c(C(=O)N[C@@H](CC3CCCCC3)C(=O)N[C@H](C#N)C[C@@H]3CCNC3=O)cc12 [Compound 185, N-[(1S)-2-[[(1S)-1-cyano-2-[(3S)-2-oxopyrrolidin-3-yl]ethyl]amino]-1-(cyclohexylmethyl)-2-oxo-ethyl]-4-methoxy-1H-indole-2-carboxamide]",< 2000 nM
16,"COc1cccc2[nH]c(C(=O)N3C[C@H]4C([C@H]3C(=O)N[C@H](C#N)C[C@@H]3CCNC3=O)C4(C)C)cc12 (stereo partly drawn) [Compound 197, (2S,5S)—N-[(1S)-1-cyano-2-[(3S)-2-oxopyrrolidin-3-yl]ethyl]-3-(4-methoxy-1H-indole-2-carbonyl)-6,6-dimethyl-3-azabicyclo[3.1.0]hexane-2-carboxamide]",< 2000 nM
17,"COc1cccc2[nH]c(C(=O)N[C@@H](CC3CC3)C(=O)N[C@H](C#N)C[C@@H]3CCNC3=O)cc12 [Compound 205, N—((S)-1-(((S)-1-cyano-2-((S)-2-oxopyrrolidin-3-yl)ethyl)amino)-3-cyclopropyl-1-oxopropan-2-yl)-4-methoxy-1H-indole-2-carboxamide]",< 2000 nM
18,COc1cccc2[nH]c(C(=O)N[C@@H](CC(C)C)C(=O)N[C@@H](C[C@@H]3CCNC3=O)C(C#N)N[C@@H](C)c3ccccc3)cc12 (stereo partly drawn) [Compound 329],< 2000 nM
19,COc1cccc2[nH]c(C(=O)N3C[C@H](c4ccccc4)CC3C(=O)N[C@H](C=O)C[C@@H]3CCNC3=O)cc12 (stereo partly drawn) [Compound 344A],< 2000 nM
20,"COc1cccc2[nH]c(C(=O)N[C@@H](CC(C)C)C(=O)N[C@@H](C[C@@H]3CCNC3=O)C(N)C#N)cc12 (stereo partly drawn) [Compound 344C, N-[(1S)-1-[[(1S)-2-amino-2-cyano-1-[[(3S)-2-oxopyrrolidin-3-yl]methyl]ethyl]carbamoyl]-3-methyl-butyl]-4-methoxy-1H-indole-2-carboxamide]",< 2000 nM
21,COc1cccc2[nH]c(C(=O)N3C[C@H](c4ccccc4)C[C@H]3C(=O)N[C@@H](C[C@@H]3CCNC3=O)C(O)C#N)cc12 (stereo partly drawn) [Compound 345],< 2000 nM

row,SMILES,EC50
1,CC(C)C[C@H](NC(=O)c1cc2c(OC(F)(F)F)cccc2[nH]1)C(=O)N[C@H](C#N)C[C@@H]1CCNC1=O [Compound 361],< 2000 nM
2,CC(C)C[C@H](NC(=O)c1nc2c(OC(F)(F)F)cccc2[nH]1)C(=O)N[C@H](C#N)C[C@@H]1CCNC1=O [Compound 363],< 2000 nM
3,N#C[C@H](C[C@@H]1CCNC1=O)NC(=O)[C@H](CC1CC1)NC(=O)c1cc2c(C3CC3)cccc2[nH]1 [Compound 375A],< 2000 nM
4,CCOc1cccc2[nH]c(C(=O)N[C@@H](CC(C)C)C(=O)N[C@H](C#N)C[C@@H]3CCNC3=O)cc12 [Compound 377],< 2000 nM
5,COc1cccc2[nH]c(C(=O)N3C[C@@H]4CCC[C@@H]4[C@H]3C(=O)N[C@H](C#N)C[C@@H]3CCNC3=O)cc12 [Compound 393],< 2000 nM
6,COc1cccc2[nH]c(C(=O)N3CC4(CC4)C[C@H]3C(=O)N[C@H](C#N)C[C@@H]3CCNC3=O)cc12 [Compound 397],< 2000 nM
7,"COc1cccc2[nH]c(C(=O)N3CC4(CCCC4)C[C@H]3C(=O)N[C@H](C#N)C[C@@H]3CCNC3=O)cc12 [Compound 401, (S)—N—((S)-1-cyano-2-((S)-2-oxopyrrolidin-3-yl)ethyl)-2-(4-methoxy-1H-indole-2-carbonyl)-2-azaspiro[4.4]nonane-3-carboxamide]",< 2000 nM
8,"COc1cccc2[nH]c(C(=O)N[C@@H](CC(C)(C)C)C(=O)N[C@H](C#N)C[C@@H]3CCNC3=O)cc12 [Compound 405, N-[(1S)-1-[[(1S)-1-cyano-2-[(3S)-2-oxopyrrolidin-3-yl]ethyl]carbamoyl]-3,3-dimethyl-butyl]-4-methoxy-1H-indole-2-carboxamide]",< 2000 nM
9,"COc1cccc2[nH]c(C(=O)N[C@@H](CC3CC3)C(=O)N[C@H](C#N)C[C@@H]3CCCNC3=O)cc12 [Compound 491, N-[(1S)-2-[[(1S)-1-cyano-2-[(3S)-2-oxo-3-piperidyl]ethyl]amino]-1-(cyclopropylmethyl)-2-oxo-ethyl]-4-methoxy-1H-indole-2-carboxamide]",< 2000 nM
10,CC(C)C[C@H](NC(=O)c1cc2c(OC(F)F)cccc2[nH]1)C(=O)N[C@H](C#N)C[C@@H]1CCNC1=O [Compound 509],< 2000 nM
11,"CCNC(C#N)[C@H](C[C@@H]1CCNC1=O)NC(=O)[C@H](CC(C)C)NC(=O)c1cc2c(OC)cccc2[nH]1 (stereo partly drawn) [Compound 511, N-[(1S)-1-[[(1S)-2-cyano-2-(ethylamino)-1-[[(3S)-2-oxopyrrolidin-3-yl]methyl]ethyl]carbamoyl]-3-methyl-butyl]-4-methoxy-1H-indole-2-carboxamide]",< 2000 nM
12,N#C[C@H](C[C@@H]1CCNC1=O)NC(=O)[C@H](CC1CC1)NC(=O)c1cc2cc(Cl)ccc2[nH]1 [Compound 519],< 2000 nM
13,"N#C[C@H](C[C@@H]1CCNC1=O)NC(=O)[C@H](CC1CC1)NC(=O)c1cc2cccc(Cl)c2[nH]1 [Compound 531, 7-chloro-N-[(1S)-2-[[(1S)-1-cyano-2-[(3S)-2-oxopyrrolidin-3-yl]ethyl]amino]-1-(cyclopropylmethyl)-2-oxo-ethyl]-1H-indole-2-carboxamide]",< 2000 nM
14,COc1cccc2[nH]c(C(=O)N[C@@H](CC3CCC3)C(=O)N[C@H](C#N)C[C@@H]3CCNC3=O)cc12 [Compound 577],< 2000 nM
15,CC(C)C[C@H](NC(=O)/C=C/c1ccc(Cl)cc1F)C(=O)N[C@H](C#N)C[C@@H]1CCNC1=O [Compound 598],< 2000 nM
16,"N#C[C@H](C[C@@H]1CCCNC1=O)NC(=O)[C@H](CC1CC1)NC(=O)c1cc2ccc(Cl)cc2[nH]1 [Compound 635, 6-Chloro-N-[(1S)-2-[[(1S)-1-cyano-2-[(3S)-2-oxo-3-piperidyl]ethyl]amino]-1-(cyclopropylmethyl)-2-oxo-ethyl]-1H-indole-2-carboxamide]",< 2000 nM
17,"N#C[C@H](C[C@@H]1CCCNC1=O)NC(=O)[C@H](CC1CC1)NC(=O)c1nc2c(Cl)ccc(Cl)c2[nH]1 [Compound 637, 4,7-dichloro-N-[(1S)-2-[[(1S)-1-cyano-2-[(3S)-2-oxo-3-piperidyl]ethyl]amino]-1-(cyclopropylmethyl)-2-oxo-ethyl]-1H-benzimidazole-2-carboxamide]",< 2000 nM
18,"COc1cccc2[nH]c(C(=O)N[C@@H](CC(C)(C)C)C(=O)N[C@H](C#N)C[C@@H]3CCCNC3=O)cc12 [Compound 643, N-[(1S)-1-[[(1S)-1-cyano-2-[(3S)-2-oxo-3-piperidyl]ethyl]carbamoyl]-3,3-dimethyl-butyl]-4-methoxy-1H-indole-2-carboxamide]",< 2000 nM
19,COc1cccc2[nH]c(C(=O)N[C@@H](CC(C)C)C(=O)N[C@@H](C[C@@H]3CCNC3=O)C(C#N)NCC(=O)O)cc12 (stereo partly drawn) [Compound 653],< 2000 nM
20,N#C[C@H](C[C@@H]1CCNC1=O)NC(=O)[C@H](CC1CC1)NC(=O)c1cc2c([nH]1)CCCC2 [Compound 711],< 2000 nM
21,N#C[C@H](C[C@@H]1CCCNC1=O)NC(=O)[C@H](CC1CC1)NC(=O)c1cc2c(Cl)nccc2[nH]1 [Compound 715],< 2000 nM

# From patent US11312704B2, “Inhibitors of cysteine proteases and methods of use thereof” (priority 2020, dated 2022)
